20 molecules from patent publication US8415351B2 (priority 2007, dated 2013) can be followed below.

The target in assay [1] is T1, HCV polymerase 1A (Δ21 NS5B, H77) (Hepatitis C virus genotype 1a, UniProt P27958).
T1 construct: 20 to 50 nM Δ21 NS5B
Kind of assay: biochemical. As to conditions: IC50 1a. In short, it runs like this: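 Radiometric assay with Δ21 NS5B (H77): 20 μM CTP, 20 μM ATP, 1 μM ^3H-UTP, 5 nM template RNA, 2–4 h at room temperature. RNA precipitated with spermine, filter-captured and counted. IC50 from non-linear fit of retained cpm vs inhibitor concentration (tight-binding equation).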

Assay [2] deals with T2, HCV polymerase 1B (Δ21 NS5B, BK) (Hepatitis C virus genotype 1b, UniProt P26663).
T2 construct: 20 to 50 nM Δ21 NS5B
Description: biochemical. In short, it runs like this:
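Δ21 NS5B (genotype 1b, BK […]) preincubated 15 min RT with inhibitor, 2 mM MnCl2, pH 7.4, 60–125 μM GTP; started with 20 μM CTP/ATP, 1 μM 3H-UTP, 5 nM template RNA, run 2–4 h RT. Spermine-precipitated RNA filter-captured, scintillation counted; IC50 from tight-binding (Morrison) fit.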

Assay [3] concerns genotype 1a-H77 subgenomic replicon cell line. Kind of assay: microbe, parasite or virus in culture. It is filed as cell-based, HCV. As to conditions: Hepatitis C virus, read-out: EC50 1a.
Assay [4] deals with genotype 1b-Con1 subgenomic replicon cell line. Kind of assay: microbe, parasite or virus in culture. Format: cell-based, HCV. As to conditions: Hepatitis C virus, read-out: EC50 1b.

Where only a bound is given, the exact number is not on record here.

T2 sequence (P26663 2420-2989, stated change not applied): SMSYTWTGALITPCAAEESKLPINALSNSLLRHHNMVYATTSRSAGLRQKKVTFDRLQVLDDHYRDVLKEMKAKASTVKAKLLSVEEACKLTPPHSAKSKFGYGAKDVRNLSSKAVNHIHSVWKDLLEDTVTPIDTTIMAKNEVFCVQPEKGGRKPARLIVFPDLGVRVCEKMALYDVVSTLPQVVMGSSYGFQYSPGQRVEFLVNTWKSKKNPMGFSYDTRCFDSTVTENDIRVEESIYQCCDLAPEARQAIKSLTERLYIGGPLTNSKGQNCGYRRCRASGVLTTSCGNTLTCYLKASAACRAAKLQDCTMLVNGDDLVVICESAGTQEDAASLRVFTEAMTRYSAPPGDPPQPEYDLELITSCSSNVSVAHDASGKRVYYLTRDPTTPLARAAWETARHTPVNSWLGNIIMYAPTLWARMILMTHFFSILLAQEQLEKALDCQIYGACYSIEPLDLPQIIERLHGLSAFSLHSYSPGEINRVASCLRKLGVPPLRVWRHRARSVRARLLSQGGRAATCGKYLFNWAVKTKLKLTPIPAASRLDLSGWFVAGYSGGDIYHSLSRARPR
T1 sequence (P27958 2421-2990, stated change not applied): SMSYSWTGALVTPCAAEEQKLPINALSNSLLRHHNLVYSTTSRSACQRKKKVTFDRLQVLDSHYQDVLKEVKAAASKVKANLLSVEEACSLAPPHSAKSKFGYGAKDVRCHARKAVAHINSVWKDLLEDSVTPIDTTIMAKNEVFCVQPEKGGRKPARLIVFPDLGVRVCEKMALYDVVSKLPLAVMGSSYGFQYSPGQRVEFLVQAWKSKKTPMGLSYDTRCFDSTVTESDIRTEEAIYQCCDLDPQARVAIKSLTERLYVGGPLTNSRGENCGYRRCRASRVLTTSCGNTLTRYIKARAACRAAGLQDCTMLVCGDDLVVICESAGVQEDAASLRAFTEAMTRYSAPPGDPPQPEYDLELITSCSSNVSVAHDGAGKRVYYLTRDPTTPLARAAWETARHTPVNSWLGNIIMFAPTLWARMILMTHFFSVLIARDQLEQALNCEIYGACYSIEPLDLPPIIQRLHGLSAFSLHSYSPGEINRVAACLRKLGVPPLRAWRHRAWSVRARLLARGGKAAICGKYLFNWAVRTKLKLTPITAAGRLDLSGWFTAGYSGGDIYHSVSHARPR

As for `COc1c(C(=O)Nc2ccc(NS(=O)(=O)CC(C)C)cc2)cc(N2CCC(=O)NC2=O)cc1C(C)(C)C` [IA-L3-1.52, 3-tert-butyl-5-(2,4-dioxotetrahydropyrimidin-1(2H)-yl)-2-methoxy-N-(4-(2-methylpropyl-sulfonamido)phenyl)benzamide], the IC50 in assay [1] and in assay [2] was 100 to 1000 nM in each case. Further, the values for the EC50 in assay [3] and in assay [4] were over 1000 nM and 100 to 1000 nM, respectively.
On to `COc1c(C(=O)Nc2ccc(NS(=O)(=O)CC(F)(F)F)cc2)cc(N2CCC(=O)NC2=O)cc1C(C)(C)C` [IA-L3-1.55, 3-tert-butyl-5-(2,4-dioxotetrahydropyrimidin-1(2H)-yl)-2-methoxy-N-(4-(2,2,2-trifluoro-ethylsulfonamido)phenyl)benzamide], for which the IC50 in assay [1] and in assay [2] was 100 to 1000 nM each time. The EC50 in assay [3] and in assay [4] was over 1000 nM in each case.
For the molecule `COc1c(C(=O)Nc2ccc(NS(=O)(=O)Cc3ccccc3)cc2)cc(N2CCC(=O)NC2=O)cc1C(C)(C)C` [IA-L3-1.57, 3-tert-butyl-5-(2,4-dioxotetrahydropyrimidin-1(2H)-yl)-2-methoxy-N-(4-(phenylmethyl-sulfonamido)phenyl)benzamide], the IC50 (as a rule, the concentration that gives 50% inhibition) in assay [1] was in the range of 10 to 100 nM; in assay [2] it was 100 to 1000 nM. The EC50 in assay [3] and in assay [4] was 100 to 1000 nM each time.
Regarding `COc1c(C(=O)Nc2ccc(NS(=O)(=O)c3c(C)noc3C)cc2)cc(N2CCC(=O)NC2=O)cc1C(C)(C)C` [IA-L3-1.59, 3-tert-butyl-N-[4-(3,5-dimethyl-isoxazole-4-sulfonylamino)-phenyl]-5-(2,4-dioxo-tetrahydro-pyrimidin-1-yl)-2-methoxy-benzamide], the IC50 was in the range of 100 to 1000 nM in assay [1] and 10 to 100 nM in assay [2]. Further, the EC50 in assay [3] and in assay [4] was over 1000 nM in each case.
As for `COc1c(C(=O)Nc2ccc(NS(=O)(=O)c3ccccc3)cc2)cc(N2CCC(=O)NC2=O)cc1C(C)(C)C` [IA-L3-1.60, 3-tert-butyl-5-(2,4-dioxotetrahydropyrimidin-1(2H)-yl)-2-methoxy-N-(4-(phenylsulfonamido)phenyl)benzamide], the IC50 in assay [1] and in assay [2] was 10 to 100 nM each time. Besides, the EC50 (as a rule, the concentration that produces a half-maximal response) in assay [3] fell in the range of 100 to 1000 nM; in assay [4], 10 to 100 nM.
Consider `COc1c(C(=O)Nc2ccc(N(C)S(C)(=O)=O)cc2)cc(N2CCC(=O)NC2=O)cc1C(C)(C)C` [IA-L3-1.62, 3-tert-butyl-5-(2,4-dioxotetrahydropyrimidin-1(2H)-yl)-2-methoxy-N-(4-(N-methylmethylsulfonamido)phenyl)benzamide], for which the IC50 in assay [1] and in assay [2] was 100 to 1000 nM in each case. In addition, the EC50 was over 1000 nM in assay [3] and 100 to 1000 nM in assay [4].
Regarding `COc1ccc(CN(c2ccc(NC(=O)c3cc(N4CCC(=O)NC4=O)cc(C(C)(C)C)c3OC)cc2)S(C)(=O)=O)cc1` [IA-L3-1.67, 3-tert-butyl-5-(2,4-dioxotetrahydropyrimidin-1(2H)-yl)-2-methoxy-N-(4-(N-(4-methoxy-benzyl)methylsulfonamido)phenyl)benzamide], the IC50 in assay [1] and in assay [2] was over 1000 nM throughout. In addition, the values for the EC50 in assay [3] and in assay [4] were over 1000 nM and 100 to 1000 nM, respectively.
As to `COc1c(C(=O)Nc2ccc(N(C(C)=O)S(C)(=O)=O)cc2)cc(N2CCC(=O)NC2=O)cc1C(C)(C)C` [IA-L3-1.69, N-[4-(acetyl-methanesulfonyl-amino)-phenyl]-3-tert-butyl-5-(2,4-dioxo-tetrahydro-pyrimidin-1-yl)-2-methoxy-benzamide], the IC50 in assay [1] and in assay [2] was 100 to 1000 nM each time. The results for the EC50 in assay [3] and in assay [4] were 100 to 1000 nM and 10 to 100 nM, respectively.
For the molecule `CCC(=O)N(c1ccc(NC(=O)c2cc(N3CCC(=O)NC3=O)cc(C(C)(C)C)c2OC)cc1)S(C)(=O)=O` [IA-L3-1.70, 3-tert-butyl-5-(2,4-dioxotetrahydropyrimidin-1(2H)-yl)-2-methoxy-N-(4-(N-(methylsulfonyl)propionamido)phenyl)benzamide], the IC50 in assay [1] and in assay [2] was over 1000 nM throughout. The EC50 fell in the range of 100 to 1000 nM in assay [3] and 10 to 100 nM in assay [4].
On to `CCCC(=O)N(c1ccc(NC(=O)c2cc(N3CCC(=O)NC3=O)cc(C(C)(C)C)c2OC)cc1)S(C)(=O)=O` [IA-L3-1.71, 3-tert-butyl-5-(2,4-dioxotetrahydropyrimidin-1(2H)-yl)-2-methoxy-N-(4-(N-(methylsulfonyl)butyramido)phenyl)benzamide], for which the figures for the IC50 in assay [1] and in assay [2] were 100 to 1000 nM and over 1000 nM, respectively. Also, the EC50 in assay [3] fell in the range of 100 to 1000 nM; in assay [4], 10 to 100 nM.
As to `COc1c(C(=O)Nc2ccc(NS(C)(=O)=O)cc2C)cc(N2CCC(=O)NC2=O)cc1C(C)(C)C` [IA-L3-1.83, 3-tert-butyl-5-(2,4-dioxotetrahydropyrimidin-1(2H)-yl)-2-methoxy-N-(2-methyl-4-(methylsulfonamido)phenyl)benzamide], the IC50 was 10 to 100 nM in assay [1] and 100 to 1000 nM in assay [2]. Further, the EC50 in assay [3] and in assay [4] was 100 to 1000 nM in each case.
For the molecule `COc1cc(NS(C)(=O)=O)ccc1NC(=O)c1cc(N2CCC(=O)NC2=O)cc(C(C)(C)C)c1OC` [IA-L3-1.85, 3-tert-butyl-5-(2,4-dioxotetrahydropyrimidin-1(2H)-yl)-2-methoxy-N-(2-methoxy-4-(methylsulfonamido)phenyl)benzamide], the IC50 in assay [1] and in assay [2] was 100 to 1000 nM each time. Moreover, the EC50 in assay [3] and in assay [4] was 100 to 1000 nM each time.
For `CC(C)(C)c1cc(N2CCC(=O)NC2=O)cc(C(=O)Nc2scc(CNS(C)(=O)=O)c2S(N)(=O)=O)c1O` [IA-L3-1.89, 3-tert-butyl-5-(2,4-dioxotetrahydropyrimidin-1(2H)-yl)-2-hydroxy-N-(4-(methylsulfonamidomethyl)-3-sulfamoylthiophen-2-yl)benzamide], the IC50 in assay [1] and in assay [2] was 10 to 100 nM each time. In addition, the EC50 in assay [3] lay in the range of 100 to 1000 nM; in assay [4], 10 to 100 nM.
As to `COc1c(C(=O)Nc2scc(CNS(C)(=O)=O)c2S(N)(=O)=O)cc(N2CCC(=O)NC2=O)cc1C(C)(C)C` [IA-L3-1.90, 3-tert-butyl-5-(2,4-dioxotetrahydropyrimidin-1(2H)-yl)-2-methoxy-N-(4-(methylsulfonamidemethyl)-3-sulfamoylthiophen-2-yl)benzamide], the IC50 in assay [1] and in assay [2] was 10 to 100 nM throughout. Moreover, the EC50 is over 1000 nM in assay [3] and 100 to 1000 nM in assay [4].
Consider `CC(C)(C)c1cc(N2CCC(=O)NC2=O)cc(C(=O)Nc2cc(CNS(C)(=O)=O)cs2)c1O` [IA-L3-1.91, 3-tert-butyl-5-(2,4-dioxotetrahydropyrimidin-1(2H)-yl)-2-hydroxy-N-(4-(methylsulfonamidomethyl)thiophen-2-yl)benzamide], for which the IC50 in assay [1] and in assay [2] was 10 to 100 nM each time. Moreover, the EC50 in assay [3] and in assay [4] was 100 to 1000 nM throughout.
Regarding `COc1c(C(=O)Nc2cc(CNS(C)(=O)=O)cs2)cc(N2CCC(=O)NC2=O)cc1C(C)(C)C` [IA-L3-1.94, 3-tert-butyl-5-(2,4-dioxotetrahydropyrimidin-1(2H)-yl)-2-methoxy-N-(4-(methylsulfonamidomethyl)thiophen-2-yl)benzamide], the IC50 in assay [1] and in assay [2] was 100 to 1000 nM each time. The values for the EC50 in assay [3] and in assay [4] were over 1000 nM and 100 to 1000 nM, respectively.
As for `CN(Cc1csc(NC(=O)c2cc(N3CCC(=O)NC3=O)cc(C(C)(C)C)c2O)c1)S(C)(=O)=O` [IA-L3-1.95, 3-tert-butyl-5-(2,4-dioxotetrahydropyrimidin-1(2H)-yl)-2-hydroxy-N-(4-((N-methylmethylsulfonamido)methyl)thiophen-2-yl)benzamide], the IC50 was in the range of 100 to 1000 nM in assay [1] and 10 to 100 nM in assay [2]. Moreover, the EC50 in assay [3] and in assay [4] was over 1000 nM throughout.
`COc1c(C(=O)Nc2cc(CN(C(=O)OC(C)(C)C)S(C)(=O)=O)cs2)cc(N2CCC(=O)NC2=O)cc1C(C)(C)C` [IA-L3-1.96, tert-butyl (5-(3-tert-butyl-5-(2,4-dioxotetrahydropyrimidin-1(2H)-yl)-2-methoxybenzamido)thiophen-3-yl)methyl(methylsulfonyl)carbamate]: the IC50 in assay [1] was 100 to 1000 nM; in assay [2], over 1000 nM. For the same molecule, the EC50 in assay [3] was 100 to 1000 nM; in assay [4] it was over 1000 nM.
Take `COc1c(C(=O)Nc2cc(CN(C)S(C)(=O)=O)cs2)cc(N2CCC(=O)NC2=O)cc1C(C)(C)C` [IA-L3-1.97, 3-tert-butyl-5-(2,4-dioxotetrahydropyrimidin-1(2H)-yl)-2-methoxy-N-(4-((N-methylmethylsulfonamido)methyl)thiophen-2-yl)benzamide]: the IC50 in assay [1] and in assay [2] was over 1000 nM each time. The EC50 in assay [3] and in assay [4] was over 1000 nM in each case.
Take `CC(C)(C)OC(=O)N(Cc1csc(NC(=O)c2cc(N3CCC(=O)NC3=O)cc(C(C)(C)C)c2O)c1)S(C)(=O)=O` [IA-L3-1.98, tert-butyl (5-(3-tert-butyl-5-(2,4-dioxotetrahydropyrimidin-1(2H)-yl)-2-hydroxybenzamido)thiophen-3-yl)methyl(methylsulfonyl)carbamate]: the IC50 in assay [1] is over 1000 nM; in assay [2] it was 100 to 1000 nM. In addition, the concentration for a half-maximal effect (EC50) in assay [3] was over 1000 nM; in assay [4] it was 100 to 1000 nM.
